Reference: patent US20250207175A1, “METHOD FOR DETECTING CONTAMINATING CARBOXYLESTERASE ACTIVITY” (Boehringer Ingelheim International GmbH, priority 2022, published 2025)

Experiments:
[1] = format: physicochemical
From the text: In order to be able to determine the enzymatic activity, a substrate, 1-octanoyloxy-pyrene-3,6,8-trisulfonic acid trisodium salt (OPTS), was chosen. Its hydrolytic product, 1-hydroxypyrene-3,6,8-trisulfonic acid trisodium salt (HPTS), can be detected by fluorescence spectroscopy. The change in the fluorescence signal over time is directly related to the change in the concentration of free fluorophore. The conversion was made possible by setting up a calibration curve with a subsequent linear fit (R^2≥0.99). The experiments of the kinetics measurements with the OPTS/4-MUD substrates assay were performed in duplicates. The reaction mixture without the protein of interest, which served as the respective control, was subtracted from the protein-containing batch. The buffer used for OPTS measurements (hydrophilic substrate) contained 0.3 M HOAc, 0.3 M MES, 0.6 M TRIS and 0.6 M NaCl (4×AMT buffer; acetate, MES, TRIS). For 4-MUD substrate measurements (lipophilic substrate) 0.04 M CHAPS was added in addition. The buffer (AMT) was prepared in four-fold concentration (4×AMT) and was added at 25% (v/v) to the reaction mix. All measurements were carried out in multiwell plates with a preparation volume of 300 μL (75 μL 4×AMT buffer, 30 μL substrate, 75 μL enzyme-containing solution, x μL additive, 300 μL ad. H2O) Unless otherwise stated, all fluorescence spectroscopic measurements were performed using 96-well, clear-bottom, non-binding plates (Greiner, Austria) on a SpectraMax M3 PlateReader (Molecular Device, USA) and recorded using SoftMax Pro 7.0.3 software (Molecular Device, USA). The OPTS assay measurements were typically taken at 25° C., λex=403 nm and λem=512 nm and the 4-MUD assay measurements were taken at 25° C., λex=330 nm and λem=450 nm. For evaluation, the detected fluorescence signal for a reaction mix without protein of interest (control) was subtracted from the reaction mix with protein of interest (e.g. DS). Hydrolysis of the substrate has been measured by detecting the fluorescence intensity of the released chromophore (4-MU or HPTS) immediately following mixing in real-time for a few minutes up to 5 hours depending on fluorescence intensity. The changes in the fluorescence signal over time were subsequently converted to hydrolytic activity using previously established calibration curves with a linear fit (R^2≥0.99).
The fluorophore HPTS can be released from the substrate (here esterified caprylic acid) by enzymatic or chemical hydrolysis (acidic and alkaline hydrolysis). In order to assess the influence of pH on aqueous solutions of the substrate, 225 μL of a 33.3 μM OPTS solution was added to 75 μL each of AMT buffer (with pH=5.5 and pH=8) and the kinetics of fluorophore release were recorded for two hours.
There is a clear difference in the slope of the fluorescence signals for the different pH values. Based on the recorded calibration curves the autohydrolysis rate at pH 5.5 was calculated as 1.58*10^−7 units (μmol*min-1) and the autohydrolysis rate at pH 8.0 was calculated as 3.48*10^−6 units. Thus, the hydrolysis rate at pH 8 is about 22-times higher compared to pH 5.5, showing that hydrolysis of the fluorogenic substrate can be observed over time, at basic pH, but only at a very low level at pH 5.5. […]

[2] = Solubility of OPTS in H2O (stock solutions, verified by light scattering); format: physicochemical; conditions: water, aqueous stock solution
Procedure: Stock solutions of the fluorogenic substrate in water were prepared. Aqueous solutions with an OPTS concentration ≥2.0 mM could be prepared. The solubility could be verified by light scattering experiments.

[3] = OPTS assay of histidine-containing buffer controls; conditions: histidine concentrations of less than 200 μM; data not shown
Procedure: 9 different antibody (Ab1-Ab9) samples were tested using the OPTS assay. As a control, measurements were performed with the respective same buffer solution as used in the antibody sample.
Since histidine has been reported previously to mediate hydrolytic activities in aqueous solutions similar to esterases (Delort, Nguyen-Trung et al. 2006, Mason, McCracken et al. 2010, Amano, Kobayashi et al. 2014, Xu, Chen et al. 2017), samples were dialysed against 0.002% NaCl using a two-step dialysis with a molecular weight cut-off (MWCO) of 20K. For preparative dialysis, the pre-wettened dialysis cassette was filled with 2 ml antibody solution and placed in a beaker filled with 1 L NaCl (0.002% w/v) solution with gentle stirring. After one hour the 1 L NaCl solution was replaced with fresh NaCl (0.002% w/v) solution and dialysed for another two hours with gentle stirring. […] In the following the assay was performed using dialysed drug substance samples. The same solution (final solution outside the dialysis cassette) was used as control sample to be subtracted from the test sample.

lipase activity = conditions: FIG. 10 of WO 2022 049294 A1; cited from earlier work

CCCCCCCC(=O)Oc1cc(S(=O)(=O)[O-])c2ccc3c(S(=O)(=O)[O-])cc(S(=O)(=O)[O-])c4ccc1c2c43.[Na+].[Na+].[Na+] [OPTS, 1-octanoyloxy-pyrene-3,6,8-trisulfonic acid trisodium salt]
stability of OPTS in solvent (autohydrolysis) [1]: more stable in DMSO compared to H2O | autohydrolysis rate at pH 5.5 ([1]; 25 μM OPTS, AMT buffer pH 5.5, two hours): 1.58*10^−7 units (μmol*min-1) | autohydrolysis rate at pH 8.0 ([1]; 25 μM OPTS, AMT buffer pH 8.0, two hours): 3.48*10^−6 units | hydrolysis rate at pH 8 compared to pH 5.5 ([1]; autohydrolysis of OPTS): about 22 times | autohydrolysis of OPTS compared to 4-MUD ([1]; particularly at pH 8.0): more critical | solubility [2]: ≥ 2000 µM

N[C@@H](Cc1c[nH]cn1)C(=O)O [histidine]
activity of histidine buffer component in the OPTS assay [3]: low 10^−7

polyethylene glycol tert-octylphenyl ether [Triton X-100]
effect of detergent on the 4-MUD assay (lipase activity): inhibited
